{"source": "patent US20210059963A1", "about": "“Beta-blockers for treating and/or preventing pathological scars” (GENEPRED BIOTECHNOLOGIES, priority 2017, published 2021)", "type_in_all_cases": "in vivo, human", "key": {"[1]": {"tested_on": "patients with keloid scars", "assay": "Effect of propranolol on itching associated with keloids (patient report)", "from_the_text": "(§1) During a clinical evaluation and treatment of subjects infected with Schistosoma mansoni in Uganda, the inventors used propranolol to lower portal blood pressure in subjects with severe liver disease (hepatic fibrosis) and splenomegaly. High portal blood pressure causes the development of oesophageal varices and variceal bleedings that are the principal cause of death in S.mansoni-infected subjects. Propranolol is currently used to reduce the risk of variceal bleedings because that drug has blocking effects on beta receptors of the nervous system, thus reducing portal pressure. Five to ten percent of the 5000 fishermen and fisher women of the study had haemorrhagic bleedings from oesophageal varices or were at risk of bleeding. In an attempt to reduce bleedings, propranolol was given to them by the oral route, one 40 mg pill per day. This molecule has little side effects and can be prescribed safely for very long periods excepted to asthmatic subjects and to patients with cardiac problems.\n(§2) During the study, one of the patients had mentioned that their keloid scars were not itching any more since they were treated for high portal pressure. This prompted the inventors to check whether this effect had also been noticed by other patients under the same treatment. The data presented here, have been obtained on 30 of these patients, they were collected from 30 out of 60 patients who had received this same treatment because of a high risk of variceal bleedings. The remaining 30 patients were not available, at that time, for evaluation of the propranolol effects.\n(§3) Keloid Grading: Patient keloid scars were classified as low, intermediate or high severity.\n(§4) Low severity corresponded to one or two scars on any part of the body, intermediate severity corresponded to various scars (including large cordons) on at least 3 different part of the body. Severe grades keloids combined extended large patches and many long and large scars on different part of the body.\n(§5) Statistical analysis was performed using the SPSS software. The effects of the treatment were tested with the nonparametric Wlcoxon test performed on paired data (before and after treatment). P values were calculated for a two sided test."}, "[2]": {"tested_on": "patients with keloid scars", "assay": "Effect of propranolol on pain associated with keloids (patient report)", "from_the_text": "as §1, §2, §3, §4, §5"}, "[3]": {"tested_on": "patients with keloid scars", "assay": "Overall evaluation of the effect of the treatment on patient clinical conditions", "from_the_text": "as §1, §2\nThe proposed answers were: a lot of improvement, much improvement, a little improvement and no improvement. […] Only one answer per patient was accepted. Forty four (44.8%) and twenty seven (27.6%) percent of the patients estimated that the treatment had improved either much or a lot their condition, respectively."}, "[4]": {"settings": "Global 1 + 2, 40 mg per day for 2 to 4 days, oral"}, "[5]": {"settings": "Global 1 + 2, 40 mg per day for 2 to 4 days, oral, listed as propranol"}, "[6]": {"settings": "Itching prior to Treatment 1, oral 40 mg per day"}, "[7]": {"settings": "Itching prior to Treatment 2, oral 40 mg per day"}, "[8]": {"settings": "share of patients with this effect who had Itching prior to Treatment 1"}, "[9]": {"settings": "share of patients with this effect who had Itching prior to Treatment 2"}, "[10]": {"settings": "Global 1 + 2, oral 40 mg per day"}, "[11]": {"settings": "Pain Prior to Propranolol 1, oral 40 mg per day"}, "[12]": {"settings": "Pain Prior to Propranolol 2, oral 40 mg per day"}, "[13]": {"settings": "share of patients with this effect who had Pain Prior to Propranolol 1"}, "[14]": {"settings": "share of patients with this effect who had Pain Prior to Propranolol 2"}}}
{"smiles": "CC(C)NCC(O)COc1cccc2ccccc12", "note": "(centres unmarked) [propranolol]", "values": [{"measurement": "Effect of Propranolol on Itching: none, % in 1 + 2", "setting": "[1]; [4]", "result": 20.0, "unit": "%"}, {"measurement": "Effect of Propranolol on Itching: partial (marked reduction), % in 1 + 2", "setting": "[1]; [4]", "result": 56.7, "unit": "%"}, {"measurement": "Effect of Propranolol on Itching: total, % in 1 + 2", "setting": "[1]; [4]", "result": 23.3, "unit": "%"}, {"measurement": "Effect of Propranolol on Itching: none, % in 1 + 2", "setting": "[1]; [5]", "result": "Twenty"}, {"measurement": "Effect of Propranolol on Itching: total, % in 1 + 2", "setting": "[1]; [5]", "result": 23.6, "unit": "%"}, {"measurement": "Effect of Propranolol on Itching: none, % in 1", "setting": "[1]; [6]", "result": 0.0, "unit": "%"}, {"measurement": "Effect of Propranolol on Itching: partial, % in 1", "setting": "[1]; [6]", "result": 80.0, "unit": "%"}, {"measurement": "Effect of Propranolol on Itching: total, % in 1", "setting": "[1]; [6]", "result": 20.0, "unit": "%"}, {"measurement": "Effect of Propranolol on Itching: none, % in 2", "setting": "[1]; [7]", "result": 30.0, "unit": "%"}, {"measurement": "Effect of Propranolol on Itching: partial, % in 2", "setting": "[1]; [7]", "result": 45.0, "unit": "%"}, {"measurement": "Effect of Propranolol on Itching: total, % in 2", "setting": "[1]; [7]", "result": 25.0, "unit": "%"}, {"measurement": "treated patients confirming that oral administration reduced keloid scar itching", "setting": "[1]; oral administration, 30 patients", "result": 80, "unit": "%"}, {"measurement": "effect of the treatment on itching as a function of keloid grades", "setting": "[1]; patients with all keloid grades (low, intermediate, high), FIG. 1", "result": "reduced"}, {"measurement": "Effect of Propranolol on Itching: none, % in none/partial/total", "setting": "[1]; [8]", "result": 0, "unit": "%"}, {"measurement": "Effect of Propranolol on Itching: partial, % in none/partial/total", "setting": "[1]; [8]", "result": 47.1, "unit": "%"}, {"measurement": "Effect of Propranolol on Itching: total, % in none/partial/total", "setting": "[1]; [8]", "result": 28.6, "unit": "%"}, {"measurement": "Effect of Propranolol on Itching: none, % in none/partial/total", "setting": "[1]; [9]", "result": 100, "unit": "%"}, {"measurement": "Effect of Propranolol on Itching: partial, % in none/partial/total", "setting": "[1]; [9]", "result": 52.9, "unit": "%"}, {"measurement": "Effect of Propranolol on Itching: total, % in none/partial/total", "setting": "[1]; [9]", "result": 71.4, "unit": "%"}, {"measurement": "study subjects reporting no effects of the treatment on keloid associated pain", "setting": "[2]", "result": 20, "unit": "%"}, {"measurement": "study subjects reporting reduction of the pain", "setting": "[2]", "result": 56.7, "unit": "%"}, {"measurement": "Effects of Propranolol on Pain: Total, % in 1 + 2", "setting": "[2]; [10]", "result": 29.2, "unit": "%"}, {"measurement": "Effects of Propranolol on Pain: none, % in 1 + 2", "setting": "[2]; [10]", "result": 25.0, "unit": "%"}, {"measurement": "Effects of Propranolol on Pain: partial, % in 1 + 2", "setting": "[2]; [10]", "result": 45.8, "unit": "%"}, {"measurement": "Effects of Propranolol on Pain: Total, % in 1", "setting": "[2]; [11]", "result": 35.7, "unit": "%"}, {"measurement": "Effects of Propranolol on Pain: none, % in 1", "setting": "[2]; [11]", "result": 28.6, "unit": "%"}, {"measurement": "Effects of Propranolol on Pain: partial, % in 1", "setting": "[2]; [11]", "result": 35.7, "unit": "%"}, {"measurement": "Effects of Propranolol on Pain: Total, % in 2", "setting": "[2]; [12]", "result": 20.0, "unit": "%"}, {"measurement": "Effects of Propranolol on Pain: none, % in 2", "setting": "[2]; [12]", "result": 20.0, "unit": "%"}, {"measurement": "Effects of Propranolol on Pain: partial, % in 2", "setting": "[2]; [12]", "result": 60.0, "unit": "%"}, {"measurement": "study subjects reporting a total abolition of pain", "setting": "[2]; for at least 2 to 3 days", "result": 23.3, "unit": "%"}, {"measurement": "effect of the treatment on pain as a function of keloid grades", "setting": "[2]; patients with all keloid grades (low, intermediate, high), FIG. 2", "result": "reduced"}, {"measurement": "Effects of Propranolol on Pain: Total, % in none/partial/total", "setting": "[2]; [13]", "result": 71.4, "unit": "%"}, {"measurement": "Effects of Propranolol on Pain: none, % in none/partial/total", "setting": "[2]; [13]", "result": 66.7, "unit": "%"}, {"measurement": "Effects of Propranolol on Pain: partial, % in none/partial/total", "setting": "[2]; [13]", "result": 45.5, "unit": "%"}, {"measurement": "Effects of Propranolol on Pain: Total, % in none/partial/total", "setting": "[2]; [14]", "result": 28.6, "unit": "%"}, {"measurement": "Effects of Propranolol on Pain: none, % in none/partial/total", "setting": "[2]; [14]", "result": 33.3, "unit": "%"}, {"measurement": "Effects of Propranolol on Pain: partial, % in none/partial/total", "setting": "[2]; [14]", "result": 54.5, "unit": "%"}, {"measurement": "patients estimating that the treatment had improved a lot their condition", "setting": "[3]; answer: a lot of improvement, FIG. 3", "result": 27.6, "unit": "%"}, {"measurement": "patients estimating that the treatment had improved much their condition", "setting": "[3]; answer: much improvement, FIG. 3", "result": 44.8, "unit": "%"}, {"measurement": "patients who felt that the treatment had clearly improved their clinical status", "setting": "[3]; total of much and a lot of improvement", "result": 72.4, "unit": "%"}]}
